# Where two headings read alike, the source gives them in different places.
# Tests used:
# human estrogen receptor = target: T1, human estrogen receptor (Homo sapiens, UniProt P03372); assay: Transactivation assay, HeLa cells transfixed with human estrogen receptor-expression vector (HEGO) and Vit-TK-CAT reporter gene; format: cell-based
# T1 construct: expressed in transfected cells; host or cells: HeLa
# T1 sequence (P03372 1-595): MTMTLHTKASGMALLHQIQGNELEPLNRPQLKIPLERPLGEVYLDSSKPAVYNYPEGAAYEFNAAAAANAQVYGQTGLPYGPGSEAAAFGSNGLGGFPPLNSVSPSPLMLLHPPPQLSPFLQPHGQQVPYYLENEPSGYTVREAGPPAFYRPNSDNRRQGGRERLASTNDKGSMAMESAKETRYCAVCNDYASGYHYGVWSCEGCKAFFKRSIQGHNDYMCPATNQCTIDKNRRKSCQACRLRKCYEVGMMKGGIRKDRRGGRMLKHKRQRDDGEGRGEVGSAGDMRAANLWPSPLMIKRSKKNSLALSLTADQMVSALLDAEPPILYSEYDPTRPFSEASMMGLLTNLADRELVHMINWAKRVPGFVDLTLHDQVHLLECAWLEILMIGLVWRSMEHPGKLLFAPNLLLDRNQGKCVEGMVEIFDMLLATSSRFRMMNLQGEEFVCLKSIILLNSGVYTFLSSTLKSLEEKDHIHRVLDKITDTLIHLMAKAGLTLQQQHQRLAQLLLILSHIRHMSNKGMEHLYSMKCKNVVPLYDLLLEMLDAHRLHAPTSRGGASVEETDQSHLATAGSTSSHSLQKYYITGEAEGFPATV
# Method: (§1) The antiestrogenic action of the compounds according to the invention was determined in transactivation assays [Demirpence, E.; Duchesne M.-J.; Badia, E.; Gagne, D. and Pons, M.: MVLN Cells: A Bioluminescent MCF-7-Derived Cell Line to Study the Modulation of Estrogenic Activity; J. Steroid. Molec. Biol. Vol. 46, No. 3, 355-364 (1993) as well as Berry, M.; Metzeger D.; Chambon, P.: Role of the Two Activating Domains of the Estrogen Receptor in the Cell-type and Promoter-context Dependent Agonistic Activity of the Anti-estrogen 4-Hydroxytamoxifen; The EMBO Journal Vol. 9, 2811-2818 (1990)].
# The HeLa cells are transfixed with human estrogen receptor-expression vector (HEGO) and Vit-TK-CAT reporter genes, and the MVLN cells are transfixed with reporter gene Vit-TK-LUC: […]
# MVLN cells = assay: Transactivation assay, MVLN cells transfixed with reporter gene Vit-TK-LUC; format: cell-based; conditions: Homo sapiens, read-out: IC50 [nM] MVLN cells
# Method: as §1
# The IC50 values for the new compounds lie in the nanomolar range. […] The HeLa cells are transfixed with human estrogen receptor-expression vector (HEGO) and Vit-TK-CAT reporter genes, and the MVLN cells are transfixed with reporter gene Vit-TK-LUC: […]
# [1] = system: DMBA-induced breast cancer; assay: DMBA-induced breast cancer in rats; format: in vivo, rat; conditions: for inhibition of tumor growth: oral, 3 mg/kg/day (FIG. 4)
# Source text: 2.2 DMBA*-induced breast cancer in rats
# 2.2. Influencing Tumor Growth in the […] Model in Rats (DMBA Tumor Model)
# *9,10-Dimethyl-1,2-benanthracene
# The growth of the DMBA-induced breast neoplasm of rats is largely dependent on estrogens and prolactin. Active antiestrogens, antigestagens, and aromatase inhibitors result in the inhibition of tumor growth, and substances that have antigonadotropic and androgenic properties also exert a tumor-inhibiting action.
# 45-47-day-old female rats (Sprague-Dawley, breeder ZiH or Mollegard), 8-10 animals per group.
# The animals receive 10 mg of DMBA orally on a one-time basis. Then, the animals are examined weekly by palpation for tumor development. Six to 10 weeks after DNBA treatment, approximately 1 to 10 tumors develop per animal. The tumor size is determined once a week with the aid of a sliding gauge. If at least one tumor has reached a specific size (150 mm^2 of tumor surface area), an ovariectomy is performed on the animals, or the treatment of the animals with the test substance begins. The treatment is carried out in most cases daily for a period of about 28 days (for details on execution, see Test Plan). The tumor size is subsequently determined once a week.
# The total tumor size per animal is determined before the beginning of treatment (initial values). For each group, the average values of the percentage changes of the tumor size relative to the initial value are then calculated. In addition, the percentage of animals per group is determined, whose tumors in each case: (1) have totally disappeared (total regression); partially disappeared (partial regression); (3) are unchanged (no change); or (4) are further enlarged (enlargement).
# (§2) The values that are found are tested for significance in the Dunnett Test and are plotted graphically.
# [2] = system: uterus growth (estradiol benzoate); assay: Uterus growth test in infantile rats (antiestrogenic action); format: in vivo, rat; conditions: differences highly significant (FIG. 1 and 2)
# Source text: 1. Uterus growth test in infantile rats, s.c. and p.o. (test for antiestrogenic action)
# 1. Uterus Growth Test in Infantile Rats (Antiestrogenic Action)
# In rodents, the uterus reacts to the administration of estrogens with an increase in weight (both proliferation and water retention). This growth is to be inhibited in a dose-dependent-manner by simultaneous administration of compounds with an antiestrogenic action.
# Infantile female rats at a weight of 35-45 g at the beginning of the test, 5-6 animals per dose.
# Formulation and Administration of the Substances: […]
# Both for s.c. and for p.o. administration, the substances are dissolved in 1 part of ethanol (E) and made up with 9 parts of peanut oil (EO).
# Young rats that have just been weaned from their mothers are delivered one day before the beginning of treatment for acclimatization and are immediately supplied with food--still in the animal cage. […] The wet weights (without contents) are determined from the prepared uteri. […]
# For each group, the average values with standard deviation (X+SD), as well as the significance of the differences compared to the control group (EB) in the Dunnett Test (p<0.05), are determined from the relative organ weights (mg/100 g of body weight). […] The relative effects of the test substances are determined by covariance and regression analysis.
# MXT breast neoplasm = assay: Tumor-inhibiting effect on hormone-dependent MXT(+) breast cancer in mice; format: in vivo, mouse; conditions: oral
# Source text: 2.1 MXT breast neoplasm in mice 2.1. Tumor-Inhibiting Effect on Hormone-Dependent […] Cancer in Mice Principle of the Method The MXT(+)-breast cancer is an estrogen- and progesterone receptor-positivetumor that was originally produced by induction with urethane and is then transplanted onward in series. Growth can be inhibited by ovariectomy and antiestrogens. This model is therefore very well suited for studying the tumor-inhibiting action of endocrinotherapeutic agents. Execution of the Test Animal Material Adult, female BDFI-mice (7-10 weeks old; weight 18-21 g). Standard care conditions. Formulation and Administration of Test Substances The test substances are dissolved in ethanol+peanut oil (1+9), and the one-time dose is administered at a volume of 0.1 ml s.c. In the case of oral administration, the test substance is dissolved in ethanol+peanut oil (1+9), and the daily dose is administered at a volume of 0.1 ml. The treatment begins either immediately after tumor implantation or 2-3 weeks thereafter (treatment of established tumors). […] Tumor growth is determined by ascertaining the tumor surface area with the aid of a sliding gauge. The tumor surface area is calculated from the product of the longest diameter and the tumor diameter that is perpendicular to said longest diameter. […] Analysis Average values ±SE of tumor surface areas are determined. […]
# [3] = system: NMU-induced breast cancer; assay: NMU-induced breast cancer in rats; format: in vivo, rat
# Source text: 2.3 NNMU^+ -induced breast cancer in rats
# 2.3 Influencing of Tumor Growth in the NMU^+ Model in Rats (MM Tumor Model)
# ^+ N-Methyl-N-nitrosourea
# The growth of the NMU-induced breast neoplasm of rats is largely dependent on estrogens and, in contrast to the DMBA tumor model, less on prolactin. Active antiestrogens, aromatase inhibitors, and antigestagens lead to the inhibition of tumor growth. Substances with antigonadotrophic properties also exert a tumor-inhibiting action.
# Female rats (Sprague-Dawley)
# NMU=i.v., test substance: s.c./p.o. […]
# p.o. = 0.1 or 0.2 ml/100 g/d in ethanol + peanut oil (1 + 9)
# s.c. = 0.1 ml/100 g/d in ethanol + peanut oil (1 + 9)
# The animals receive 50 mg/kg of NMU i.v. on a one-time basis. Then, the animals are examined once a week by palpation for tumor development. About 6-8 weeks after NMU treatment, one or more tumors develop per animal. At a minimum size of 150 mm^2 /tumor/animal, daily treatment (7× a week) begins with the test substance, and the determination of body weight+tumor size is done (with the aid of a sliding gauge) (1×/week).
# as §2
SMILES,IC50 (human estrogen receptor) [nM],IC50 (MVLN cells; MVLN) [nM],other results
"CN(CCCCC[C@@H]1Cc2cc(O)ccc2[C@H]2CC[C@]3(C)[C@@H](O)CC[C@H]3[C@H]12)CCC[S+]([O-])CCCC(F)(F)C(F)(F)F (stereo partly drawn) [Example 6, 7α-{5-[N-Methyl-N-3-(4,4,5,5,5-pentafluoropentanesulfinyl)-propylamino]-pentyl}-estra-1,3,5(10)-triene-3,17β-diol]",0.1,1,–
"C[C@]12CC[C@@H]3c4ccc(O)cc4C[C@@H](CCCCCCCCC[S+]([O-])CCCC(F)(F)C(F)(F)F)[C@H]3[C@@H]1CC[C@@H]2O (stereo partly drawn) [Reference, 7α-[9-(4,4,5,5,5-pentafluoropentanesulfinyl)-nonyl]-estra-1,3,5(10)-triene-3,17β-diol, reference compound]",–,–,"IC50 (MVLN cells; MVLN cells, Vit-TK-LUC): 6 nM; inhibition of tumor growth [1]: only a slight action"
"CN(CCCCC[C@@H]1Cc2cc(O)ccc2[C@H]2CC[C@]3(C)[C@@H](O)CC[C@H]3[C@H]12)CCCSCCCC(F)(F)C(F)(F)F [Example 1, 7α-{5-[N-Methyl-N-3-(4,4,5,5,5-pentafluoropentylthio)-propylamino]-pentyl}-estra-1,3,5(10)-triene-3,17β-diol]",0.3,1,"relative antiestrogenic activity vs 7α-[9-(4,4,5,5,5-pentafluoropentanesulfinyl)-nonyl]-estra-1,3,5(10)-triene-3,17β-diol ([2]; oral administration): 4.7 times; relative antiestrogenic activity vs 7α-[9-(4,4,5,5,5-pentafluoropentanesulfinyl)-nonyl]-estra-1,3,5(10)-triene-3,17β-diol ([2]; subcutaneous administration): 5.4 times; inhibition of tumor growth (MXT breast neoplasm; 14 days of treatment, 10 mg/kg/day (FIG. 3)): inhibits tumor growth as strongly as an ovariectomy; activity compared to 7α-[9-(4,4,5,5,5-pentafluoropentanesulfinyl)-nonyl]-estra-1,3,5(10)-triene-3,17β-diol (MXT breast neoplasm; MXT, 14 days, 10 mg/kg/day): more strongly active; activity compared to tamoxifen (TAM) ([1]; DMBA, oral (FIG. 4)): even more strongly active than tamoxifen (TAM); inhibition of tumor growth [1]: completely inhibits tumor growth (no growth); activity compared to 7α-[9-(4,4,5,5,5-pentafluoropentanesulfinyl)-nonyl]-estra-1,3,5(10)-triene-3,17β-diol ([3]; NMU, oral): clearly more strongly active; inhibition of tumor growth ([3]; oral, 10 mg/kg/day): complete inhibition of tumor growth; inhibition of tumor growth, dose dependence ([3]; orally administered (FIG. 5)): inhibits tumor growth in a dose-dependent manner"
"CN(CCCCC[C@@H]1Cc2cc(O)ccc2[C@H]2CC[C@]3(C)[C@@H](O)CC[C@H]3[C@H]12)CCS(=O)(=O)CCCC(F)(F)C(F)(F)F [Example 4, 7α-{5-[N-Methyl-N-2-(4,4,5,5,5-pentafluoropentanesulfonyl)-ethylamino]-pentyl}-estra-1,3,5(10)-triene-3,17β-diol]",0.16,1.3,–
"CN(CCCCC[C@@H]1Cc2cc(O)ccc2[C@H]2CC[C@]3(C)[C@@H](O)CC[C@H]3[C@H]12)CCCS(=O)(=O)CCCC(F)(F)C(F)(F)F [Example 5, 7α-{5-[N-Methyl-N-3-(4,4,5,5,5-pentafluoropentanesulfonyl)-propylamino]-pentyl}-estra-1,3,5(10)-triene-3,17β-diol]",0.3,0.66,–
"CN(CCCCC[C@@H]1Cc2cc(O)ccc2[C@H]2CC[C@@]3(C)[C@@H](CC[C@]3(C)O)[C@H]12)CCCSCCCC(F)(F)C(F)(F)F [Example 2, 17α-Methyl-7α-{5-[N-methyl-N-3-(4,4,5,5,5-pentafluoropentyl-thio)-propylamino]-pentyl}-estra-1,3,5(10)-triene-3,17β-diol]",0.2,0.6,–
"C#C[C@]1(O)CC[C@H]2[C@@H]3[C@H](CCCCCN(C)CCCSCCCC(F)(F)C(F)(F)F)Cc4cc(O)ccc4[C@H]3CC[C@@]21C [Example 3, 17α-Ethinyl-7α-{5-[N-methyl-N-3-(4,4,5,5,5-pentafluoropentylthio)-propylamino]-pentyl}-estra-1,3,5(10)-triene-3,17β-diol]",1,0.6,–
